Source: patent publication US20180213796A1, “PLANT DISEASE CONTROL COMPOSITION AND PLANT DISEASE CONTROL METHOD” (SUMITOMO CHEMICAL COMPANY, LIMITED, priority 2015, published 2018)

Assays:
[1] = test system: damping-off fungus (Rhizoctonia solani); assay: Test Example 14: corn seed treatment, pot test in soil mixed with damping-off fungus, control value; format: in vivo; details: corn seeds, 20 days after
Protocol: In a rotary seed treatment machine (trade name: HEGE11, manufactured by […]), corn seeds (variety: yellow dent corn) were treated by smearing treatment using a flowable formulation of the present bacterial strain as obtained in Formulation Example 19, metconazole flowable formulation (40.0% flowable formulation, trade name: Metolock Fungicide, Valent U.S.A. Corporation), a chemical liquid prepared by dissolving tebuconazole in acetone/Tween 20 (weight ratio=95:5) and diluting with water, a chemical liquid prepared by dissolving prothioconazole in acetone/Tween 20 (weight ratio=95:5) and diluting with water, a chemical liquid prepared by dissolving difenoconazole in acetone/Tween 20 (weight ratio=95:5) and diluting with water, a chemical liquid prepared by dissolving triticonazole in acetone/Tween 20 (weight ratio=95:5) and diluting with water, a chemical liquid prepared by dissolving triadimenol in acetone/Tween 20 (weight ratio=95:5) and diluting with water, a chemical liquid prepared by dissolving bromconazole in acetone/Tween 20 (weight ratio=95:5) and diluting with water, so that the soybean seeds retain the present bacterial strain and the compound in the amount shown in Table 4.
Cultivation was carried out in a greenhouse under irrigation (“treated compartment”). The plants were investigated 20 days after for the number of diseased plants, and the disease incidence was calculated by the following “Equation 1”. […] The plants were investigated 20 days after for the number of diseased plants, and the disease incidence was calculated by the following “Equation 1”. The control value of the treated compartment was calculated by the following equation “Equation 2”, based on the disease incidences of the treated compartment and the untreated compartment.
Disease incidence (%)=100×(number of diseased plant/total number of seeded seeds) Equation 1
Control value (%)=100×[(disease incidence in untreated compartment−disease incidence in treated compartment)/disease incidence in untreated compartment] Equation 2 […]

[2] = test system: damping-off fungus (Rhizoctonia solani); assay: Test Example 15: soybean seed treatment, pot test in soil mixed with damping-off fungus, control value; format: in vivo; details: soybean seeds, 20 days after
Protocol: In a rotary seed treatment machine (trade name: HEGE11, manufactured by WINTERSTEIGER), soybean seeds (variety: “Hatayutaka”) were treated by smearing treatment using the flowable formulation of the present bacterial strain obtained in Formulation Example 19 and a chemical liquid wherein ipconazole was dissolved in acetone/Tween 20 (weight ratio=95:5) and diluted with water, so that the soybean seeds retain the present bacterial strain and the compound in the amount shown in Table 5.
Cultivation was carried out in a greenhouse under irrigation (“treated compartment”). The plants were investigated 20 days after for the number of diseased plants, and the disease incidence was calculated by the following “Equation 1”. Also, similar procedures were conducted using untreated soybean seeds, instead of the treated soybean seeds, as described above for the treated compartment (“untreated compartment”). The plants were investigated 20 days after for the number of diseased plants, and the disease incidence was calculated by the following “Equation 1”. The control value of the treated compartment was calculated by the following equation “Equation 2”, based on the disease incidences of the treated compartment and the untreated compartment.
Disease incidence (%)=100×(number of diseased plant/total number of seeded seeds) Equation 1 […]

[3] = compound alone 0.005 g/Kg seeds

Compound | Controlling Effect (control value) [1, 3] [%] | Controlling Effect (control value) ([1]; compound alone 0.01 g/Kg seeds) [%] | further results
OC(Cc1ccccc1Cl)(Cn1nc[nH]c1=S)C1(Cl)CC1 (stereo not shown) [Prothioconazole] | 42 | 50 | –
CC(C)C1CCC(Cc2ccc(Cl)cc2)C1(O)Cn1cncn1 (stereo not shown) [Ipconazole] | – | – | Controlling Effect (control value) [2, 3]: 27%; Controlling Effect (control value) ([2]; compound alone 0.01 g/Kg seeds): 33%
CC1(C)CCC(=Cc2ccc(Cl)cc2)C1(O)Cn1cncn1 (stereo not shown) [Triticonazole] | 17 | 25 | –
Clc1ccc(C2(Cn3cncn3)CC(Br)CO2)c(Cl)c1 (stereo not shown) [Bromconazole] | 17 | 33 | –
CC(C)(C)C(O)(CCc1ccc(Cl)cc1)Cn1cncn1 (stereo not shown) [Tebuconazole] | – | 25 | Controlling Effect (control value) ([1]; compound alone 0.02 g/Kg seeds): 33%
CC1COC(Cn2cncn2)(c2ccc(Oc3ccc(Cl)cc3)cc2Cl)O1 (stereo not shown) [Difenoconazole] | 58 | – | Controlling Effect (control value) ([1]; compound alone 0.0025 g/Kg seeds): 33%
CC(C)(C)C(O)C(Oc1ccc(Cl)cc1)n1cncn1 (stereo not shown) [Triadimenol] | 33 | 42 | –
CC1(C)CCC(Cc2ccc(Cl)cc2)C1(O)Cn1cncn1 (stereo not shown) [Metconazole] | – | – | Controlling Effect (control value) ([1]; compound alone 0.0005 g/Kg seeds): 25%; Controlling Effect (control value) ([1]; compound alone 0.001 g/Kg seeds): 33%
